Each block holds one compound with its values, some of them ahead of it.
Legend:
[1] = target: recombinant β-secretase (Homo sapiens, UniProt P56817); assay: β-secretase inhibitory activity against recombinant β-secretase; settings: for fold lower enzyme inhibitory potency: compared to 3a
[2] = tested on: β-secretase in neuroblastoma cells; settings: Neuroblastoma cell
[3] = tested on: transgenic AD mice; settings: cited from earlier work

Sequence of recombinant β-secretase (P56817 46-501): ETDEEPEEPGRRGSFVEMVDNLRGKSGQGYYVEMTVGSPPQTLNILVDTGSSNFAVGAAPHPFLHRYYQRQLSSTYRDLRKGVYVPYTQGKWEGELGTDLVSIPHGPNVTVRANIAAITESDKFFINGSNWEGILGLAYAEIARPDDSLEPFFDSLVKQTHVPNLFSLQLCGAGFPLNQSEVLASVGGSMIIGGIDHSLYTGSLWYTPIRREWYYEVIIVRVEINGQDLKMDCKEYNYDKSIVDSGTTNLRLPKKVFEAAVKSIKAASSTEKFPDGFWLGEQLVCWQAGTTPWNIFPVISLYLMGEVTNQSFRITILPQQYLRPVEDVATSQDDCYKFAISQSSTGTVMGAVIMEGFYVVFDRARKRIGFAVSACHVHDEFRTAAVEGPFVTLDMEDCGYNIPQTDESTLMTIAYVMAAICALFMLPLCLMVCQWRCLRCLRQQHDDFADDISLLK

SMILES: CN(C(=O)CC[C@@H](c1ccccc1)N1Cc2cc(Oc3ccccc3)ccc2N=C1N)C1CCCCC1 [3b]
- fold lower enzyme inhibitory potency [1]: ~6 fold

SMILES: CN(C(=O)OC[C@@H](c1ccccc1)N1Cc2cc(Oc3ccccc3)ccc2N=C1N)C1CCCCC1 [3c]
- fold loss of potency ([1]; compared to 3b): ~5 fold

SMILES: CN(C(=O)OC[C@@H](C1CCCCC1)N1Cc2cc(Oc3ccccc3)ccc2N=C1N)C1CCCCC1 [3d]
- fold improved potency ([1]; over 3c): 20 fold

SMILES: CN(C(=O)CC[C@@H](C1CCCOC1)N1Cc2cc(Oc3ccccc3)ccc2N=C1N)C1CCCCC1 (stereo partly shown) [3g]
- fold lower enzyme inhibitory potency [1]: ~5 fold

SMILES: COc1cccc(CNC[C@@H](O)[C@H](Cc2ccccc2)NC(=O)c2cc(C(=O)N[C@H](C)c3ccccc3)cc(N(C)S(C)(=O)=O)c2)c1 [GRL-8234]
- effect on cognitive function [3]: rescued the decline of cognitive function

Now from value to compound:

- fold improvement of enzyme activity ([1]; over 4b): ~6 fold
SMILES: COCc1nc(CN(C(=O)CC[C@@H](C2CCCCC2)N2Cc3cc(Oc4ccccc4)ccc3N=C2N)C2CCCCC2)cs1 [4f]

- IC50 [2]: 0.048 µM
SMILES: NC1=Nc2ccc(Oc3ccccc3)cc2CN1[C@@H](CCC(=O)N(Cc1cn[nH]c1)C1CCCCC1)C1CCCCC1 [4h]
